Source: patent US20090012150A1, “Stablized Pharmaceutical Composition Comprising an Amorphous Active Substance” (priority 2002, published 2009)
Like-named read-outs stand apart in the source and are kept apart here.

Conditions: 6 days at 80° C.
Protocol: Nitrogen of 99% purity (vol/vol) purity was used as an inert gas. The samples were stored at 80° C. for 6 days, and then the assay of impurities was determined by High Performance Liquid Chromatography.
The oxygen content in the vials was determined by gas chromatography with a mass spectrometric detector (GC/MS).
The degradation products were determined by […] Agilent Technologies (Waldbronn, Germany) model HP 1100. Chromatograms were recorded by a UV detector at 250 nm. The column Chromolit Performance RP-18e 100×4.6 mm (Merck, Darmstadt, Germany) and the gradient of mobile phase A: 20 mM ammonium acetate pH 4.0, 5% (v/v) tetrahydrofuran and 25% (v/v) acetonitrile and the gradient of mobile phase B: 20 mM ammonium acetate pH 4.0, 5% (v/v) tetrahydrofuran and 70 (v/v) acetonitrile were used. The composition of the mobile phase was changed so that initially and to minute 2 there was 25% of mobile phase B (75% of mobile phase A), from minute 2 to minute 4.7 the composition of the mobile phase changed linearly to 100% mobile phase B and it remained such to the end of the analysis at minute 5.5. Flow rate of the mobile phase was 7 ml/min. […] The samples of atorvastatin calcium were dissolved in the solvent 200 mM Tris p H 7, 40% (v/v) acetonitrile of the concentration 0.5 mg/ml.

[1] = oxygen content in atmosphere 0.6 %
[2] = oxygen content in atmosphere 2.8 %, hemi calcium salt
[3] = oxygen content in atmosphere 12.2 %, hemi calcium salt
[4] = oxygen content in atmosphere 21.3 %, hemi calcium salt

SMILES | Increase in the assay of degradation products in % in reference to starting active substance [1] | Increase in the assay of degradation products in % in reference to starting active substance [2] | Increase in the assay of degradation products in % in reference to starting active substance [3] | Increase in the assay of degradation products in % in reference to starting active substance [4]
CC(C)c1c(C(=O)Nc2ccccc2)c(-c2ccccc2)c(-c2ccc(F)cc2)n1CC[C@@H](O)C[C@@H](O)CC(=O)O.CC(C)c1c(C(=O)Nc2ccccc2)c(-c2ccccc2)c(-c2ccc(F)cc2)n1CC[C@@H](O)C[C@@H](O)CC(=O)O.CC(C)c1c(C(=O)Nc2ccccc2)c(-c2ccccc2)c(-c2ccc(F)cc2)n1CC[C@@H](O)C[C@@H](O)CC(=O)[O-].CC(C)c1c(C(=O)Nc2ccccc2)c(-c2ccccc2)c(-c2ccc(F)cc2)n1CC[C@@H](O)C[C@@H](O)CC(=O)[O-].[Ca+2] (relative stereo) [Crystalline atorvastatin calcium, (R—(R*, R*))-2-(4-fluorophenyl)-β,δ-dihydroxy-5-(1-methylethyl)-3-phenyl-4((phenylamino)carbonyl)-1H-pyrrole-1-heptanoic acid hemi calcium salt] | 0% | 0% | 0.02% | 0.05%
CC(C)c1c(C(=O)Nc2ccccc2)c(-c2ccccc2)c(-c2ccc(F)cc2)n1CC[C@@H](O)C[C@@H](O)CC(=O)O.CC(C)c1c(C(=O)Nc2ccccc2)c(-c2ccccc2)c(-c2ccc(F)cc2)n1CC[C@@H](O)C[C@@H](O)CC(=O)O.CC(C)c1c(C(=O)Nc2ccccc2)c(-c2ccccc2)c(-c2ccc(F)cc2)n1CC[C@@H](O)C[C@@H](O)CC(=O)[O-].CC(C)c1c(C(=O)Nc2ccccc2)c(-c2ccccc2)c(-c2ccc(F)cc2)n1CC[C@@H](O)C[C@@H](O)CC(=O)[O-].[Ca+2] (relative stereo) [Amorphous atorvastatin calcium, (R—(R*, R*))-2-(4-fluorophenyl)-β,δ-dihydroxy-5-(1-methylethyl)-3-phenyl-4((phenylamino)carbonyl)-1H-pyrrole-1-heptanoic acid hemi calcium salt] | 0% | 0.13% | 0.49% | 0.89%
